Like-named read-outs stand apart in the source and are kept apart here.
How the values were obtained:
[1] = test system: NK cell; assay: Nanostilbene in cancer patients: NK cell activity and interferon gamma; type: in vivo, human; details: administered in the form of nanostilbene
Text: Additionally, pterostilbene has shown to inhibit inflammatory cytokines associated with ARDS.

[2] = rat, in vivo; cited from earlier work
[3] = test system: inflammatory cytokines associated with ARDS; details: cited from earlier work
[4] = test system: lipopolysaccharide-induced inflammatory reactions; details: cited from earlier work
[5] = test system: sepsis induction with live Escherichia coli / LPS O111:B4; details: cited from earlier work; for concentration of IL-1α: controls 1187.0±278.64
[6] = test system: primary peritoneal macrophages; details: cited from earlier work
[7] = test system: LPS-induced ARDS; details: cited from earlier work
[8] = test system: LPS-challenged macrophages; details: 0 to 50 μM, 6 h pre-incubation, LPS 24 h; cited from earlier work
[9] = test system: polymicrobial sepsis; details: 10 mg/kg intraperitoneally at 1 and 6 h after CL2P and every 12 h; cited from earlier work
[10] = test system: LPS-induced ARDS; details: cited from earlier work; remark: listed apart in the source
[11] = test system: macrophage foam cells; details: cited from earlier work
[12] = test system: lethal endotoxemia / lethal sepsis; details: cited from earlier work
[13] = test system: ulcerative colitis (UC); details: cited from earlier work
[14] = test system: polymicrobial sepsis; details: 10 mg/kg intraperitoneally, 72 h after CL2P; cited from earlier work
[15] = test system: myocardial ischemia and reperfusion; details: cited from earlier work
[16] = test system: iNOS; details: cited from earlier work
[17] = 10 mg/kg intravenously then 10 mg/kg/h infusion

Molecule: trans-3,5-dimethoxy-4-hydroxystilbene [pterostilbene]
- NK cell activity [1]: increased NK cell activity
- interferon gamma production [1]: increased
- bioavailability [2]: 80%
- interleukin-1, interleukin-6, interleukin-8 and TNF-alpha [3]: inhibition

Molecule: CC1=CC(=O)C(C(C)C)=CC1=O [thymoquinone]
- concentration of nitric oxide [4]: reduced significantly
- lipopolysaccharide-induced inflammatory reactions [4]: suppressed effectively
- concentration of IL-1α ([5]; 0.75 mg/kg dose): 310.8 ± 70.93 pg/mL
- IL-10 levels ([5]; 0.75 mg/kg, controls 5505.2±333.96): 2885.0 ± 553.98 pg/mL
- concentration of IL-1α ([5]; 1 mg/kg group): 428.3 ± 71.32 pg/mL
- levels of IL-2 ([5]; P=0.0851): relatively lower levels
- levels of TNF-α ([5]; P=0.1817): relatively lower levels
- mortality reduction ([5]; mice, thymoquinone intraperitoneal): 80-90%
- renal and hepatic biomarker profiles ([5]; mouse, in vivo): improved

Molecule: C[S+]([O-])CCCCN=C=S (stereo not shown) [sulforaphane, 1-isothiocyanato-4-(methylsulfinyl)-butane]
- HO-1 expression ([6]; LPS-stimulated Nrf2 (+/+) macrophages): significantly augmented
- LPS-stimulated mRNA expression, protein expression and production of TNF-alpha, IL-1beta, COX-2 and iNOS ([6]; Nrf2 (+/+) macrophages, pretreatment): potently inhibited
- anti-inflammatory effect ([6]; Nrf2 (-/-) macrophages): attenuated
- serum levels of interleukin-6 (IL-6) ([7]; 50 mg/kg, ELISA): significantly decreased
- serum levels of tumor necrosis factor-α (TNF-α) ([7]; 50 mg/kg, ELISA): significantly decreased
- lactate dehydrogenase (LDH) activity ([7]; 50 mg/kg, LPS 5 mg/kg 3 days later): significantly decreased
- cyclooxygenase-2 (COX-2) protein expression ([7]; 50 mg/kg, western blot): significantly inhibited
- matrix metalloproteinase-9 (MMP-9) protein expression ([7]; 50 mg/kg, western blot): significantly inhibited
- inducible nitric oxide synthase (iNOS) activity ([7]; 50 mg/kg): significantly inhibited
- nuclear factor-KB protein expression ([7]; 50 mg/kg): significantly decreased
- prostaglandin E2 (PGE2) production ([7]; 50 mg/kg): significantly inhibited
- wet-to-dry ratio of the lungs ([7]; 50 mg/kg): significantly decreased
- Nrf2/antioxidant response element (ARE) pathway ([7]; pre-treatment): activated
- direct reaction with cytokines and NO [8]: neither directly reacted with cytokines, nor with NO
- expression of NO and cytokines [8]: able to prevent

Molecule: epigallocatechin-3-gallate [EGCG]
- hypotension (mean arterial blood pressure) [9]: significantly improved
- LPS-induced ARDS ([10]; 10 mg/kg ip 1 h before LPS 10 mg/kg ip): attenuated
- expression of IκB-α ([10]; 10 mg/kg ip): increased
- expression of TLR-4, MyD88, TRIF, and p-p65 in the lung tissue ([10]; 10 mg/kg ip): alleviated
- expression of TNF-α, IL-1f and IL-6 in the lung, serum, and bronchoalveolar lavage fluid ([10]; 10 mg/kg ip): significantly decreased
- expression of p65 ([10]; 10 mg/kg ip): had no influence
- TNF-α-induced nuclear factor-κB (NF-κB) activity [11]: inhibition
- TNF-α-induced downregulation of ABCA1 and decrease in cholesterol efflux to apoA1 ([11]; pretreatment): attenuated
- rescue from lethal sepsis ([12]; first dose 24 hours after cecal ligation and puncture): rescued
- protection against lethal endotoxemia ([12]; intraperitoneal): protected
- colonic tissue erosion ([13]; 50 and 100 mg/kg/day): attenuation
- HIF-1α and STAT3 protein expression in the colon ([13]; mouse, in vivo): decreasing
- plasma levels of IL-10 and TGF-β1 ([13]; mouse, in vivo): increasing
- release of IL-6 and IL-17 ([13]; plasma): reduce
- survival [14]: significantly improved
- myeloperoxidase activity [15, 17]: reduced
- myocardial damage [15, 17]: reduced
- nuclear factor-kB and activator protein-1 DNA binding ([15]; rat, in vivo): reduction
- plasma IL-6 levels ([15]; rat, in vivo): decreased
- plasma creatine phosphokinase levels ([15]; rat, in vivo): decreased
- NO production ([16]; cells cotreated with EGCG and LPS): Inhibition
- 130-kDa protein and 4.5-kb mRNA levels of iNOS [16]: significantly reduced
- disappearance of inhibitor kappaB from cytosolic fraction [16]: blocked
- activation of nuclear factor-kappaB ([16]; electrophoretic mobility shift assay): blocked

— patent US11759495B2, “Upregulation of therapeutic T regulatory cells and suppression of suicidal ideations in response to inflammation by administration of nutraceutical compositions alone or combined with minocycline” (Therapeutic Solutions International, Inc., priority 2020, dated 2023)
